Laboratory results: patent US5786349A, “Method for treating chlamydia infectious diseases by rifamycin derivative” (Kaneka Corporation, priority 1995, dated 1998)
Converted amounts (≈) assume the structure as drawn. “And” between values parts separate entries of the source, which are not always exact repeats. Identical values can stand only once.

Experiments:
[1] = tested on: Chlamydia pneumoniae TW-183; experiment: In vitro test 3: inhibition of inclusion formation in HeLa 229 cells, about 5 times the inoculum of test 2, C. pneumoniae TW-183; details: TW183, 72 h, read-out: Minimum inhibitory concentration TW-183
[2] = tested on: Chlamydia pneumoniae AR-39; experiment: In vitro test 3: inhibition of inclusion formation in HeLa 229 cells, about 5 times the inoculum of test 2, C. pneumoniae AR-39; details: AR39, 72 h, read-out: Minimum inhibitory concentration AR-39
[3] = tested on: Chlamydia pneumoniae AR-39; experiment: Infection-therapy test: mouse pneumonia model; details: 1 mg/kg/day i.p. for 3 days
[4] = tested on: Chlamydia trachomatis F/UW-6/Cx; experiment: In vitro test 1: inhibition of inclusion formation in HeLa 229 cells (Japan Society of Chemotherapy standard method), C. trachomatis F/UW-6/Cx; details: rifampicin vs compound 4
[5] = tested on: Chlamydia trachomatis D/UW-3/Cx; experiment: In vitro test 1: inhibition of inclusion formation in HeLa 229 cells (Japan Society of Chemotherapy standard method), C. trachomatis D/UW-3/Cx; details: rifampicin vs compound 4

Row | SMILES | MIC [1] [ng/mL] | MIC [2] [ng/mL] | also measured
1 | CC[C@H]1OC(=O)[C@H](C)[C@@H](O[C@H]2C[C@@](C)(OC)[C@@H](O)[C@H](C)O2)[C@H](C)[C@@H](O[C@@H]2O[C@H](C)C[C@H](N(C)C)[C@H]2O)[C@](C)(O)C[C@@H](C)CN(C)[C@H](C)[C@@H](O)[C@]1(C)O [Azithromycin, reference compound] | 250 (≈ 334 nM) | 500 (≈ 668 nM) | –
2 | COC1C=COC2(C)Oc3c(C)c(O)c4c(=O)c(c5oc6cc(N7CCN(CC(C)C)CC7)cc(O)c6nc-5c4c3C2=O)NC(=O)C(C)=CC=CC(C)C(O)C(C)C(O)C(C)C(OC(C)=O)C1C (centres unmarked) [Compound 4] | 1.25 (≈ 1.33 nM) | 1.25 (≈ 1.33 nM) | Mice from which Chlamydia was reisolated from the lung/tested mice ([3]; 2 days after infection): 3/3; Mice from which Chlamydia was reisolated from the lung/tested mice ([3]; 7 days after infection (3 days after completion of treatment), 1 mg/kg/day): only one mouse in a group of 5 mice and 1/5; Mice from which Chlamydia was reisolated from the lung/tested mice ([3]; 9 days after infection (5 days after completion of treatment)): 0/5; Mice from which Chlamydia was reisolated from the lung/tested mice ([3]; 14 days after infection (10 days after completion of treatment)): 0/5; Mice from which Chlamydia was reisolated from the lung/tested mice ([3]; 19 days after infection (15 days after completion of treatment)): 0/5; reisolation of organisms ([3]; after the 5th day from completion of treatment): no reisolation of organisms was observed; death of mice ([3]; treatment group): no death of the treatment group of mice was observed
3 | COC1C=COC2(C)Oc3c(C)c(O)c4c(=O)c(c5oc6cc(N7CCN(CC(C)C)CC7)cc(O)c6nc-5c4c3C2=O)NC(=O)C(C)=CC=CC(C)C(O)C(C)C(O)C(C)C(O)C1C (centres unmarked) [Compound 5] | 1.25 (≈ 1.39 nM) | 2.5 (≈ 2.78 nM) | –
4 | CO[C@H]1/C=C/O[C@@]2(C)Oc3c(C)c(O)c4c(O)c(c(/C=N/N5CCN(C)CC5)c(O)c4c3C2=O)NC(=O)/C(C)=C\C=C\[C@H](C)[C@H](O)[C@@H](C)[C@@H](O)[C@@H](C)[C@H](OC(C)=O)[C@@H]1C [rifampicin] | – | – | MIC as multiple of the concentration for the compound 4 [4]: about 30 times; MIC as multiple of the concentration for the compound 4 [5]: about 30 times

The remaining compounds from weak to strong by MIC [1], led by results:

Row | MIC [1] [ng/mL] | MIC [2] [ng/mL] | SMILES | also measured
5 | 5 (≈ 5.39 nM) | 1.25 (≈ 1.35 nM) | CCCN1CCN(c2cc(O)c3nc4c5c6c7c(C)c(O)c5c(=O)c(c-4oc3c2)NC(=O)C(C)=CC=CC(C)C(O)C(C)C(O)C(C)C(OC(C)=O)C(C)C(OC)C=COC(C)(O7)C6=O)CC1 (centres unmarked) [Compound 3] | –
6 | 2.5 (≈ 2.57 nM) | 0.63 (≈ 0.649 nM) | COC1C=COC2(C)Oc3c(C)c(O)c4c(=O)c(c5oc6cc(N7CCN(CC8OCCO8)CC7)cc(O)c6nc-5c4c3C2=O)NC(=O)C(C)=CC=CC(C)C(O)C(C)C(O)C(C)C(OC(C)=O)C1C (centres unmarked) | –
7 | 0.63 (≈ 0.711 nM) | 1.25 (≈ 1.41 nM) | COC1C=COC2(C)Oc3c(C)c(O)c4c(=O)c(c5oc6cc(N7CCOCC7)cc(O)c6nc-5c4c3C2=O)NC(=O)C(C)=CC=CC(C)C(O)C(C)C(O)C(C)C(OC(C)=O)C1C (centres unmarked) [Compound 1] | –
8 | 0.63 (≈ 0.701 nM) | 0.16 (≈ 0.178 nM) | COC1C=COC2(C)Oc3c(C)c(O)c4c(=O)c(c5oc6cc(N7CCN(C)CC7)cc(O)c6nc-5c4c3C2=O)NC(=O)C(C)=CC=CC(C)C(O)C(C)C(O)C(C)C(OC(C)=O)C1C (centres unmarked) [Compound 2] | –
